Assay results taken from PubChem BioAssay (NCI).
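Dose response: 5 concentrations. Exposure: 48 h. Format: 96-well plates. Endpoint: linear interpolation; highest concentration if not reached. TGI: total growth inhibition.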 Where a SMILES comes first, the peptide text is derived from it. [ ]: non-standard residue; d: D form. ΔPro = O=C(O)[CH]1C=CCN1

Key:
Assay in all cases: growth of human tumour cells (NCI), 48 h
PC-3 prostate = system: PC-3 prostate
NCI-H460 lung = system: NCI-H460 lung
HOP-92 NSCLC = system: HOP-92 NSCLC
RXF 393 renal = system: RXF 393 renal
786-0 renal = system: 786-0 renal
SK-MEL-5 melanoma = system: SK-MEL-5 melanoma
OVCAR-5 ovarian = system: OVCAR-5 ovarian
UO-31 renal = system: UO-31 renal
RPMI-8226 leukemia = system: RPMI-8226 leukemia
OVCAR-8 ovarian = system: OVCAR-8 ovarian
HL-60(TB) leukemia = system: HL-60(TB) leukemia
UACC-62 melanoma = system: UACC-62 melanoma
BT-549 breast = system: BT-549 breast
HT29 colon = system: HT29 colon

Row | SMILES | TGI (PC-3 prostate) [µM] | TGI (NCI-H460 lung) [µM] | TGI (HOP-92 NSCLC) [µM] | TGI (RXF 393 renal) [µM] | TGI (786-0 renal) [µM] | TGI (SK-MEL-5 melanoma) [µM] | TGI (OVCAR-5 ovarian) [µM] | TGI (UO-31 renal) [µM] | TGI (RPMI-8226 leukemia) [µM] | TGI (OVCAR-8 ovarian) [µM] | TGI (HL-60(TB) leukemia) [µM] | TGI (UACC-62 melanoma) [µM] | TGI (BT-549 breast) [µM] | TGI (HT29 colon) [µM]
1 | COC(=O)C1(C(=O)OC)N=C(C)OC1c1ccccc1O (centres undefined) | > 100 | > 100 | > 100 | > 100 | > 100 | > 100 | > 100 | > 100 | > 100 | > 100 | > 100 | > 100 | > 100 | –
2 | O=S1SC(=S)C2C=CC=NC21 (centres undefined) | 30.5 | 37.8 | 37.6 | 32.5 | 27.6 | 53.2 | 28.6 | 28.4 | > 100 | 79 | > 100 | 40.2 | 33.9 | 30.8
3 | CN1CCC2(c3ccccc3)CC(=O)/C(=C/c3ccc(Cl)c(Cl)c3)C1C2 (centres undefined) | 4.52 | 5.94 | 7.33 | 7.07 | 5.35 | 8.37 | 6.37 | 3.82 | 5.13 | 4.64 | 3.46 | 3 | 6.83 | 4.12
4 | COc1ccc(N2C(=O)C(Cl)C2c2cc3cc(Br)ccc3nc2Cl)cc1 (centres undefined) | 21 | 12.2 | 18.3 | 9.38 | 18.5 | 8.63 | > 25 | 2.43 | 21.6 | > 25 | 14.5 | 8.86 | 9.11 | 8.84
5 | COc1cc(S(=O)(=O)Nc2ccc(-c3csc(N4C(=O)C(C)SC4c4cccs4)n3)cc2)ccc1Cl (centres undefined) | > 100 | – | > 100 | 31.1 | > 100 | > 100 | > 100 | > 100 | > 100 | > 100 | 41.7 | > 100 | > 100 | > 100
6 | CC(Br)CN1CCOCC1 (centres undefined) | > 100 | > 100 | > 100 | > 100 | > 100 | > 100 | > 100 | > 100 | > 100 | > 100 | 51.8 | > 100 | > 100 | > 100
7 | CC(=O)Nc1cc(Cl)cc(Cl)c1O | > 100 | > 100 | > 100 | > 100 | > 100 | > 100 | > 100 | > 100 | > 100 | > 100 | > 100 | > 100 | > 100 | > 100
8 | CC(=O)NS(=O)(=O)c1ccc(NCc2cccc3c(=O)c4ccc(Cl)cc4oc23)cc1 | > 86.2 | 51 | 69.7 | 78.9 | > 100 | > 100 | > 100 | > 100 | > 100 | > 49.1 | 5.43 | > 100 | > 100 | > 100
9 | CCOC(=O)c1ncn(CCc2ccc(Cl)cc2)c1C | > 100 | > 100 | > 100 | > 100 | > 100 | > 100 | > 100 | > 100 | > 100 | > 100 | > 100 | > 100 | > 100 | > 100
10 | NS(=O)(=O)c1nnc(NS(=O)(=O)c2ccccc2[N+](=O)[O-])s1 | > 100 | > 100 | > 100 | > 100 | > 100 | > 100 | > 100 | > 100 | > 100 | – | > 100 | > 100 | > 100 | > 100
11 | CSC1=NN(C(C)=O)C(C(OC(C)=O)C(OC(C)=O)C(OC(C)=O)C(COC(C)=O)OC(C)=O)S1 (centres undefined) | > 100 | > 100 | > 100 | > 100 | > 100 | > 100 | > 100 | > 100 | > 100 | > 100 | > 100 | > 100 | > 100 | > 100
12 | Cn1nnc2c(C(N)=S)ncn2c1=O | > 100 | > 100 | > 100 | > 100 | > 100 | > 100 | > 100 | > 100 | > 100 | > 100 | > 100 | > 100 | > 100 | > 100
13 | O=C(O)C1C=CCN1C(=O)C1C=CCN1C(=O)C1C=CCN1 (centres undefined) (H-[ΔPro]-[ΔPro]-[ΔPro]-OH; configuration not given here) | > 100 | > 100 | > 100 | > 100 | > 100 | > 100 | > 100 | > 100 | > 100 | > 100 | > 100 | > 100 | > 100 | > 100
14 | C=C(C)C1CC[C@@](C)(O)[C@H](C#N)C1 (some centres undefined) | > 100 | > 100 | – | > 100 | > 100 | > 100 | > 100 | > 100 | > 100 | > 100 | > 100 | > 100 | > 100 | > 100
15 | O=C(OCc1ccccc1)C(Cc1ccc(OCc2ccccc2)cn1)NC(=O)C(F)(F)F (centres undefined) | > 100 | > 100 | > 100 | > 100 | > 100 | > 100 | > 100 | > 100 | > 100 | > 100 | > 100 | – | > 100 | > 100
16 | COc1ccc(-c2sc(Br)c3c2C(=O)C2OC(=O)NC32)cc1OC (centres undefined) | > 100 | > 100 | > 100 | > 100 | > 100 | > 100 | > 100 | > 100 | > 100 | > 100 | > 100 | > 100 | > 100 | > 100
